Experimental data: patent publication US9340577B2, “HLA binding motifs and peptides and their uses” (priority 1992, dated 2016)
Like-named read-outs stand apart in the source and are kept apart here. No end group written: not given here.

Assays:
Assay in all cases: biochemical
DRB1*1501 = DRB1*1501 (Homo sapiens, UniProt P01903+P01911); format: binding
DR1 (DRB1*0101) = DR1 (DRB1*0101) (Homo sapiens, UniProt P01903+P01911, A100R/D57E/F55L/F60I/F76Y/I96L/L162R/M171V/P40L/Q125E/R42F/V115G/Y59C); format: binding
DRB1*0802 = DRB1*0802 (Homo sapiens, UniProt P01903+P01911, A100R/A103L/A169T/F76Y/H45Y/I96F/K41T/L162R/M171V/P40S/Q125H/Q178H/Q39Y/Q99D/R218S/R42G/S66Y/V115G/W38E); format: binding
DRB5*0101 = DRB5*0101 (Homo sapiens, UniProt P01903+Q30154)
DRB4*0101 = DRB4*0101 (Homo sapiens, UniProt P01903+P13762, G164S); format: binding
DRB1*1101 = DRB1*1101 (Homo sapiens, UniProt P01903+P01911, A100R/A169T/A87E/I96F/K41T/L162R/M171V/P40S/Q125H/Q178H/Q39Y/Q99D/R42S/S66Y/T262R/V115G/W38E)
Chain of DRB1*1101 (P01903 26-254 limits assumed, other chains not shown): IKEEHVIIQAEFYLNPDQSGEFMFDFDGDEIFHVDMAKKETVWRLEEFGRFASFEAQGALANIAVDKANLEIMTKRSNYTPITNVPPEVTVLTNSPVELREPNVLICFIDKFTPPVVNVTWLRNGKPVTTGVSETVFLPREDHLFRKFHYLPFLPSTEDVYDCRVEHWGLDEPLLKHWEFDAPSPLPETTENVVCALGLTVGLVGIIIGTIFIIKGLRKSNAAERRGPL

DRB1*1302 = DRB1*1302 (Homo sapiens, UniProt P01903+P01911, A100E/A169T/K41T/L162R/M171V/P40S/Q125H/Q178H/Q39Y/Q99D/R42S/S66N/T262R/V115G/W38E/Y61H); format: binding
Chain of DRB1*1302 (P01903 26-254 limits assumed, other chains not shown): as above

DR4w4 (DRB1*0401) = DR4w4 (DRB1*0401) (Homo sapiens, UniProt P01903+P01911, A100K/A169T/F76Y/I96L/K127E/L162R/M171V/N62H/P40V/Q125Y/R42H/S133A/S149N/S66Y/V115G/V209L/W38E); format: binding
DRB1*0901 = DRB1*0901 (Homo sapiens, UniProt P01903+P01911, A100R/A103E/D57H/D86V/F55Y/F60I/F76Y/I96F/K127E/L162R/M171V/P40D/Q125H/Q99R/R33Q/R42F/S133A/S66N/T210M/V115G/W38K/Y107V/Y59G/Y89S); format: binding
DR7 (DRB1*0701) = DR7 (DRB1*0701) (Homo sapiens, UniProt P01903+P01911, A100R/A102G/A103Q/D57E/D86V/E43K/F76Y/K127E/L162R/M171V/P40G/Q125H/Q99D/R33Q/R42Y/R54Q/S133A/S66F/T210M/V115G/Y107V/Y59L/Y89S); format: binding
A*0202 = A*0202 (Homo sapiens, UniProt P04439, D140Y/D185E/D98H/E176V/E277Q/G131W/G231S/I119L/I121R/I166T/I218V/L180W/L300P/L318F/N151K/N90K/P208A/P217A/Q67R/Q86G/Q94H/R138H/R169H/T345S); format: binding
A*0206 = A*0206 (Homo sapiens, UniProt P04439, D140Y/D185E/D98H/E176V/E277Q/F33Y/G131W/G231S/I119V/I121R/I166T/I218V/L300P/L318F/N151K/N90K/P208A/P217A/Q86G/Q94H/R138H/R169H/T345S); format: binding
A*6802 = A*6802 (Homo sapiens, UniProt P04439, A269V/D140Y/D185E/E176V/E277Q/E87N/F33Y/G231S/I121R/I166T/I218V/L180W/L300P/L318F/N151K/P208A/P217A/Q86R/R138H/R169H/S129P/T345S/V36M); format: binding
HLA-A*0201 (HLA-A2.1) = HLA-A*0201 (HLA-A2.1) (Homo sapiens, UniProt P04439, D140Y/D185E/D98H/E176V/E277Q/G131W/G231S/I119V/I121R/I166T/I218V/L300P/L318F/N151K/N90K/P208A/P217A/Q86G/Q94H/R138H/R169H/T345S); format: binding

LIRLENAILFTAREH [Peptide 90.0002]
IC50 (DRB1*1501): 2.07 µM
IC50 (DR1 (DRB1*0101)): 0.023 µM
IC50 (DRB1*0802): 11.7 µM
IC50 (DRB5*0101; Binding affinity DRB5 *0101): 4.27 µM
IC50 (DRB4*0101): 0.339 µM
IC50 (DRB1*1101; Binding affinity DRB1 *1101): 5.69 µM
IC50 (DRB1*1302): 0.051 µM
IC50 (DR4w4 (DRB1*0401)): 1.22 µM

LKTIIKPHCMYYHMQ [Peptide 89.0119]
IC50 (DRB1*1501): 17.4 µM
IC50 (DR1 (DRB1*0101)): > 20 µM
IC50 (DRB1*0802): > 20 µM
IC50 (DRB5*0101): > 20 µM
IC50 (DRB4*0101): 1.68 µM
IC50 (DRB1*0901): > 20 µM
IC50 (DRB1*1101; Binding affinity DRB1 *1101): > 20 µM
IC50 (DRB1*1302): 0.104 µM
IC50 (DR4w4 (DRB1*0401)): 2 µM
IC50 (DR7 (DRB1*0701)): > 20 µM

CC[C@H](C)[C@H](NC(=O)[C@H](CCCCN)NC(=O)[C@H](CC(N)=O)NC(=O)[C@@H](NC(=O)[C@@H](NC(=O)[C@H](CC(C)C)NC(=O)[C@@H](NC(=O)[C@H](CO)NC(=O)[C@H](CC(C)C)NC(=O)[C@H](C)N)[C@@H](C)O)C(C)C)C(C)C)C(=O)N[C@@H](CCCNC(=N)N)C(=O)NCC(=O)N[C@H](C(=O)N[C@@H](Cc1ccccc1)C(=O)N[C@@H](CCCCN)C(=O)O)[C@@H](C)O [Peptide F196.09]
IC50 (DRB1*1501): 0.16 µM
IC50 (DRB5*0101): 0.038 µM
IC50 (DRB4*0101): 0.214 µM
IC50 (DRB1*1101): 0.032 µM
IC50 (DRB1*1302): 0.0076 µM

SWGMVMLMLVRFKCA [Peptide 89.0044]
IC50 (DR1 (DRB1*0101)): 4.89 µM
IC50 (DRB1*0802): 9.99 µM
IC50 (DRB5*0101; Binding affinity DRB5 *0101): 5.06 µM
IC50 (DRB4*0101): 1.44 µM
IC50 (DRB1*0901): > 20 µM
IC50 (DRB1*1302): 0.975 µM
IC50 (DR4w4 (DRB1*0401)): 3.38 µM
IC50 (DR7 (DRB1*0701)): > 20 µM

RTLQQLMFI [Peptide 1525.23]
IC50 (A*0202): 1.82 µM
IC50 (A*0206): 0.055 µM
IC50 (A*6802): > 20 µM

ACSWGMVVLLLVRYK [Peptide 89.0004]
IC50 (DRB1*1501): 0.87 µM
IC50 (DR1 (DRB1*0101)): 1.02 µM
IC50 (DRB1*0802): 4.77 µM
IC50 (DRB5*0101; Binding affinity DRB5 *0101): > 20 µM
IC50 (DRB4*0101): 1.52 µM
IC50 (DRB1*0901): 2 µM
IC50 (DR4w4 (DRB1*0401)): 0.701 µM

GQFRVYPEV [Peptide 9013.0038]
IC50 (A*0206): 0.043 µM
IC50 (A*6802): > 20 µM

GHQVVPPMAVSKAKA [Peptide 90.0011]
IC50 (DRB1*0802): 1.63 µM
IC50 (DRB5*0101; Binding affinity DRB5 *0101): 5.32 µM
IC50 (DRB4*0101): 0.066 µM
IC50 (DRB1*1101; Binding affinity DRB1 *1101): 2.06 µM
IC50 (DRB1*1302): 2.58 µM
IC50 (DR4w4 (DRB1*0401)): 0.451 µM
IC50 (DR7 (DRB1*0701)): 6.24 µM

YLLHVIKSDL [Peptide 9013.0152]
IC50 (HLA-A*0201 (HLA-A2.1)): 0.086 µM
IC50 (A*0202): 0.022 µM
IC50 (A*0206): 0.062 µM

TQQATPGPV [Peptide 9013.0027]
IC50 (HLA-A*0201 (HLA-A2.1)): > 20 µM
IC50 (A*0206): 5.87 µM
IC50 (A*6802): > 20 µM

YLHNRLVVFT [Peptide 86.0075]
IC50 (A*0202): 0.12 µM
IC50 (A*0206): 15.2 µM
IC50 (A*6802): 1.6 µM

VTAKELKFV [Peptide 1418.24]
IC50 (A*6802): > 20 µM

CC[C@H](C)[C@H](NC(=O)[C@@H](NC(=O)[C@@H](NC(=O)[C@@H](NC(=O)[C@@H](NC(=O)[C@@H](NC(=O)[C@@H](N)CCCNC(=N)N)[C@@H](C)O)[C@@H](C)O)C(C)C)[C@@H](C)O)[C@@H](C)O)C(=O)N[C@H](C(=O)N[C@H](C(=O)N[C@@H](Cc1ccc(O)cc1)C(=O)N[C@H](C(=O)O)C(C)C)C(C)C)[C@@H](C)O [Peptide 9013.0304]
IC50 (A*0202): 0.0096 µM
IC50 (A*0206): 0.073 µM
IC50 (A*6802): 0.00018 µM

TLHDLCQAL [Peptide 1481.47]
IC50 (A*6802): > 20 µM

LQLPPLERLTV [Peptide 73.0158]
IC50 (A*6802): > 20 µM

LVQLKCPPLLITSNI [Peptide 89.0021]
IC50 (DR1 (DRB1*0101)): 0.072 µM
IC50 (DRB1*0802): > 20 µM
IC50 (DRB5*0101; Binding affinity DRB5 *0101): > 20 µM
IC50 (DRB4*0101): 0.234 µM
IC50 (DRB1*0901): > 20 µM
IC50 (DRB1*1101; Binding affinity DRB1 *1101): > 20 µM
IC50 (DR4w4 (DRB1*0401)): 4.29 µM

RLLLTASLLV [Peptide 9013.0117]
IC50 (HLA-A*0201 (HLA-A2.1)): 0.057 µM
IC50 (A*0202): 0.123 µM
IC50 (A*6802): 5.94 µM

TTAKLTIESV [Peptide 9013.0125]
IC50 (HLA-A*0201 (HLA-A2.1)): > 20 µM
IC50 (A*0202): 4.07 µM
IC50 (A*6802): 0.053 µM
